US8877681B2, “Use of specific alcohol alkoxylates as an adjuvant for agrotechnical applications” (BASF SE, priority 2002, dated 2014)

How the values were obtained:
[1] = test system: white goosefoot (Chenepodium album; CHEAL); experiment: Greenhouse herbicidal efficacy test, tank mix of herbicide and adjuvant, post-emergence spray; format: in vivo; conditions: 0% no damage, 100% complete damage
Method: (§1) The alkoxylates were applied by the tank mix method together with Basagran (480 g/l bentazone) or BAS 635 H (71.4% by weight of tritosulfuron). […] The herbicidal effect was assessed in a greenhouse experiment. The test plant used was white goosefoot (Chenepodium album; CHEAL) and the common morningglory (Pharbitis album; PHAAL).
(§2) The plants were sown directly or pricked out at a rate of 3-15 plants per pot. When the active ingredient was applied, the plants were 5-16 cm in height. The test containers used were plastic pots containing loamy sand and approximately 3% humus as substrate. The surfactants were applied by the tank mix method by spray application post-emergence in an automated spray cabinet with a water application rate of 400 liters per hectare. The experimental period was 6 days to 4 weeks. Evaluation was carried out using a scale of from 0% to 100%. 0% means no damage, 100% means complete damage.

[2] = test system: common morningglory (Pharbitis album; PHAAL); experiment: as above; format: in vivo; conditions: Tritosulfuron (BAS 635 H) 0.250 kg/ha as printed in table + adjuvant 0.125 kg/ha (Comparison 0.250 kg/ha), 0% no damage, 100% complete damage
Method: as §1, §2

Structure (SMILES): CC(C)N1C(=O)c2ccccc2NS1(=O)=O [Bentazone, bentazone]
- CHEAL herbicidal effect (damage, scale 0% to 100%) ([1]; Bentazone (Basagran) 0.250 kg/ha + adjuvant 0.125 kg/ha (Comparison 0.250 kg/ha), 400 l/ha water): 23%

Structure (SMILES): COc1nc(NC(=O)NS(=O)(=O)c2ccccc2C(F)(F)F)nc(C(F)(F)F)n1 [Tritosulfuron, tritosulfuron]
- PHAAL herbicidal effect (damage, scale 0% to 100%) [2]: 48%
- CHEAL herbicidal effect (damage, scale 0% to 100%) ([1]; Tritosulfuron (BAS 635 H) 0.250 kg/ha as printed in table + adjuvant 0.125 kg/ha (Comparison 0.250 kg/ha)): 35%
